Where two headings read alike, the source gives them in different places.
Target: T1, LRRK2 Ser935 phosphorylation in SH-SY5Y cells over-expressing recombinant full length LRRK2 (Homo sapiens, UniProt Q5S007)
T1 construct: A BacMam virus expressing full length recombinant LRRK2 was purchased from Invitrogen; host or cells: SH-SY5Y (BacMam transduction)
Assay: Recombinant cellular LRRK2 AlphaScreen assay
Format: cell-based
How it was run: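 SH-SY5Y cells transduced with BacMam full-length LRRK2 (MOI 50, 24 h) were treated with compound, top final 10 uM, for 60 min at 37° C. Lysates were assayed by AlphaScreen for pSer935 and total LRRK2. Dose-response fitted to a sigmoidal model.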

[1] = read-out: pIC50 in the recombinant cellular LRRK2 alphaScreen assay (converted)
[2] = LRRK2 Ser935 phosphorylation, 60 minutes, read-out: recombinant cellcular LRRK2 alphaScreen assay (pIC50) (converted)
[3] = LRRK2 Ser935 phosphorylation, 60 minutes

T1 sequence (Q5S007 whole entry): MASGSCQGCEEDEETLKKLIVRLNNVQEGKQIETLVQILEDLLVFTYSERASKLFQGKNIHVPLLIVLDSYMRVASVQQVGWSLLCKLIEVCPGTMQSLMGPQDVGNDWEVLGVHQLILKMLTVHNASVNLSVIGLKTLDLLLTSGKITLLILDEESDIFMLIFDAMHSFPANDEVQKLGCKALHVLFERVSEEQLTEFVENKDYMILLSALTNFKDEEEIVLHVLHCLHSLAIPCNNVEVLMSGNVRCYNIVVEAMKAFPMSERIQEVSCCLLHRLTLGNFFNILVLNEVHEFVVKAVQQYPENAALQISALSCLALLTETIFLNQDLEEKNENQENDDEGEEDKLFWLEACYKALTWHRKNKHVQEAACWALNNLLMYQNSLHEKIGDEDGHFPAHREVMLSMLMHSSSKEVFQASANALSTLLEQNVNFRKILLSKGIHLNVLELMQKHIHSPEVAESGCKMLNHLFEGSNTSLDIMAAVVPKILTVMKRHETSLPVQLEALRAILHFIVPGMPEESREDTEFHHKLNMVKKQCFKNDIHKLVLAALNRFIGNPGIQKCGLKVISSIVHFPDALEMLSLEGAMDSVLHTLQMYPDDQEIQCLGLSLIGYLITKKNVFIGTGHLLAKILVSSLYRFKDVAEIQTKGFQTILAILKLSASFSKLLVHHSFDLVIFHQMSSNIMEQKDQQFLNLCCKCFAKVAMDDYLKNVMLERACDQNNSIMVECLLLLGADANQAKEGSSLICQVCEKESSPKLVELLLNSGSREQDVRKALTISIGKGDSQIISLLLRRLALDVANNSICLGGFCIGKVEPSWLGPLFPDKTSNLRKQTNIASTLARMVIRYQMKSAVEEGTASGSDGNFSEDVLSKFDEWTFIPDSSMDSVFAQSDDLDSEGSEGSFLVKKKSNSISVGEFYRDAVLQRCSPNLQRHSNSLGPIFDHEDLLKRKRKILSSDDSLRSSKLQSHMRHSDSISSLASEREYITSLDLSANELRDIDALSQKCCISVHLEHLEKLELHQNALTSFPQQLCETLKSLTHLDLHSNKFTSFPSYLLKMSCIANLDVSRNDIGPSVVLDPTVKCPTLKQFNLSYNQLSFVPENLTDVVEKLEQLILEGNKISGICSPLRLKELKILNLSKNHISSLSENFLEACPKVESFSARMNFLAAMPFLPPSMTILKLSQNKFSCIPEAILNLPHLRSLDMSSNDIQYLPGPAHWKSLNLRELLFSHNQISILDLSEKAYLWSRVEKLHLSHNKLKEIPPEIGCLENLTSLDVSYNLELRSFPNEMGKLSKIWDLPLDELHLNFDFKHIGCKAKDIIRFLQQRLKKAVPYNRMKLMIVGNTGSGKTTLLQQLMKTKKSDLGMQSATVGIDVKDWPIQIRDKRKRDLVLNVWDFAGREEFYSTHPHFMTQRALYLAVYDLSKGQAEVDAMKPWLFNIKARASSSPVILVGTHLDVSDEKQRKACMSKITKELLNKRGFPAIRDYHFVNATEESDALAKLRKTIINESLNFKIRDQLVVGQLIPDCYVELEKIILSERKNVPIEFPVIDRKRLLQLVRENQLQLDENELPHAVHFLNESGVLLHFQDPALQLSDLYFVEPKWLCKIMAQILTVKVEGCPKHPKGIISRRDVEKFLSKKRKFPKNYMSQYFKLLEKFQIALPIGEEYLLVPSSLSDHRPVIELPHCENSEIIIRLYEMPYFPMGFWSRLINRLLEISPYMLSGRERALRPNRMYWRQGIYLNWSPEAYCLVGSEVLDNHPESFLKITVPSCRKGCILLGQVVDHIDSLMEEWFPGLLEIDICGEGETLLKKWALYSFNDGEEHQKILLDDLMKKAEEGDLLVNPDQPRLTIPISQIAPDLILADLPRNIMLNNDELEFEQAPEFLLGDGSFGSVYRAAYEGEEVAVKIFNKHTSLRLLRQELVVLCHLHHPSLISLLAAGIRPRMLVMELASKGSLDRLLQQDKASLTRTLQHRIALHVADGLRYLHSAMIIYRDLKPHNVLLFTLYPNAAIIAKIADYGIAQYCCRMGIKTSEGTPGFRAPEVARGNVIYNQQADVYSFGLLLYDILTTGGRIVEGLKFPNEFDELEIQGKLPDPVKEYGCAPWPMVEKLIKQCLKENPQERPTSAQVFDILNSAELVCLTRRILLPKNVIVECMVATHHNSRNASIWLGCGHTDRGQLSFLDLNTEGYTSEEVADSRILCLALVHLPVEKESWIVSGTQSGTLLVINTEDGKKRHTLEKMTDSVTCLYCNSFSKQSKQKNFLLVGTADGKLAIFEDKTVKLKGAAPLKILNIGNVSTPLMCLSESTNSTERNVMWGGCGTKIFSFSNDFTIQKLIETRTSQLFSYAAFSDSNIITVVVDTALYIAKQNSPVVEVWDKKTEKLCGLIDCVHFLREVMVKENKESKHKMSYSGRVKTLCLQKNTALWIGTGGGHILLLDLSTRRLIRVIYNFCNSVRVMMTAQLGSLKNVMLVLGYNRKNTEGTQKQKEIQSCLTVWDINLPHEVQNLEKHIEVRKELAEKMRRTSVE

Molecule | IC50 [1] [nM] | IC50 [2] [nM] | recombinant cellcular LRRK2 alphaScreen assay (pIC50) [3]
CCOc1nc(Nc2cnn(C3CCN(C)C3)c2C)nc2[nH]ccc12 (single isomer, unassigned) [Example E14, 4-ethoxy-N-(5-methyl-1-(1-methylpyrrolidin-3-yl)-1H-pyrazol-4-yl)-7H-pyrrolo-[2,3-d]-pyrimidin-2-amine] | ≤ 100 | 63.1 | –
CCOc1nc(Nc2cnn(CC(C)(C)O)c2C)nc2[nH]ccc12 [Example E3, 1-(4-((4-ethoxy-7H-pyrrolo-[2,3-d]pyrimidin-2-yl)amino)-5-methyl-1H-pyrazol-1-yl)-2-methylpropan-2-ol] | ≤ 100 | 79.4 | –
CCOc1nc(Nc2cnn(CCOC)c2Cl)nc2[nH]ccc12 [Example E21, N-(5-chloro-1-(2-methoxyethyl)-1H-pyrazol-4-yl)-4-ethoxy-7H-pyrrolo-[2,3-d]-pyrimidin-2-amine] | ≤ 100 | – | –
CCOc1nc(Nc2cnn(C3CCOCC3)c2C2CC2)nc2[nH]ccc12 [Example E44, N-(5-cyclopropyl-1-(tetrahydro-2H-pyran-4-yl)-1H-pyrazol-4-yl)-4-ethoxy-7H-pyrrolo-[2,3-d]pyrimidin-2-amine] | ≤ 100 | 63.1 | –
CCOc1nc(Nc2cnn(CCN3CCOCC3)c2C)nc2[nH]ccc12 [Example E45, 4-ethoxy-N-(5-methyl-1-(2-morpholinoethyl)-1H-pyrazol-4-yl)-7H-pyrrolo-[2,3-d]pyrimidin-2-amine] | ≤ 100 | 20 | –
cis-3-(4-((4-ethoxy-7H-pyrrolo[2,3-d]pyrimidin-2-yl)amino)-5-methyl-1H-pyrazol-1-yl)cyclopentanol [Example E56] | – | – | 7.8
trans-2-(4-((4-ethoxy-7H-pyrrolo-[2,3-d]pyrimidin-2-yl)amino)-5-methyl-1H-pyrazol-1-yl)-cyclopentanol [Example E40] | – | – | 7.8
trans-2-(4-((4-ethoxy-7H-pyrrolo-[2,3-d]pyrimidin-2-yl)amino)-5-methyl-1H-pyrazol-1-yl)-cyclopentanol [Example E41] | – | – | 7.8
trans-2-(5-chloro-4-((4-ethoxy-7H-pyrrolo-[2,3-d]-pyrimidin-2-yl)amino)-1H-pyrazol-1-yl)-cyclopentanol [Example E37] | – | – | 7.6
trans-2-(5-chloro-4-((4-ethoxy-7H-pyrrolo-[2,3-d]-pyrimidin-2-yl)amino)-1H-pyrazol-1-yl)cyclopentanol [Example E38] | – | – | 7.6

The next lines start with the values.

IC50 [1] [nM] | IC50 [2] [nM] | recombinant cellcular LRRK2 alphaScreen assay (pIC50) [3] | Molecule
≤ 100 | – | – | CCOc1nc(Nc2cnn(C3CCCC3(C)O)c2C)nc2[nH]ccc12 (racemic) [Example E70, Trans-2-(4-((4-ethoxy-7H-pyrrolo-[2,3-d]pyrimidin-2-yl)amino)-5-methyl-1H-pyrazol-1-yl)-1-methylcyclopentanol]
≤ 100 | – | – | CCOc1nc(Nc2cnn(C3CCN(C4COC4)C3)c2C)nc2[nH]ccc12 (single isomer, unassigned) [Example E67, 4-ethoxy-N-(5-methyl-1-(1-(oxetan-3-yl)-pyrrolidin-3-yl)-1H-pyrazol-4-yl)-7H-pyrrolo-[2,3-d]pyrimidin-2-amine]
≤ 100 | 31.6 | – | CCOc1nc(Nc2cnn([C@H]3CCN(C4COC4)C[C@@H]3F)c2Cl)nc2[nH]ccc12 (single isomer, unassigned) [Example E104]
≤ 100 | 25.1 | – | CCOc1nc(Nc2cnn([C@@H]3CCN(C4COC4)C[C@H]3F)c2Cl)nc2[nH]ccc12 (single isomer, unassigned) [Example E105]
≤ 100 | 25.1 | – | CCOc1nc(Nc2cnn(C3CCOCC3C)c2C)nc2[nH]ccc12 (single isomer, unassigned) [Example E113, (cis)-4-ethoxy-N-(5-methyl-1-(3-methyltetrahydro-2H-pyran-4-yl)-1H-pyrazol-4-yl)-7H-pyrrolo[2,3-d]pyrimidin-2-amine]
≤ 100 | 0.631 | – | CCOc1nc(Nc2cnn(C3CN(C)CCC3(F)F)c2C)nc2[nH]ccc12 (single isomer, unassigned) [Example E121, N-(1-(4,4-difluoro-1-methylpiperidin-3-yl)-5-methyl-1H-pyrazol-4-yl)-4-ethoxy-7H-pyrrolo[2,3-d]pyrimidin-2-amine]
– | 0.794 | – | CCOc1nc(Nc2cnn(C3CN(C4COC4)CCC3(F)F)c2Cl)nc2[nH]ccc12 (single isomer, unassigned) [Example E124, N-(5-chloro-1-(4,4-difluoro-1-(oxetan-3-yl)piperidin-3-yl)-1H-pyrazol-4-yl)-4-ethoxy-7H-pyrrolo[2,3-d]pyrimidin-2-amine]
– | 5.01 | – | CCOc1nc(Nc2cnn(C3CCN(C4COC4)CC3(F)F)c2Cl)nc2[nH]ccc12 (single isomer, unassigned) [Example E134, N-(5-chloro-1-(3,3-difluoro-1-(oxetan-3-yl)piperidin-4-yl)-1H-pyrazol-4-yl)-4-ethoxy-7H-pyrrolo[2,3-d]pyrimidin-2-amine]
≤ 100 | 15.8 | – | CCOc1nc(Nc2cnn(C3CN(C4COC4)CCO3)c2Cl)nc2[nH]ccc12 (single isomer, unassigned) [Example E141, N-(5-chloro-1-(4-(oxetan-3-yl)morpholin-2-yl)-1H-pyrazol-4-yl)-4-ethoxy-7H-pyrrolo[2,3-d]pyrimidin-2-amine]
≤ 100 | 12.6 | – | CCOc1nc(Nc2cnn(C3CC(O)C3)c2C)nc2[nH]ccc12 (stereo not shown) [Example E52, 3-(4-((4-ethoxy-7H-pyrrolo-[2,3-d]-pyrimidin-2-yl)-amino)-5-methyl-1H-pyrazol-1-yl)cyclo-butanol]
≤ 100 | 39.8 | – | CCOc1nc(Nc2cnn(C3CC(N4CCOCC4)C3)c2C)nc2[nH]ccc12 (stereo not shown) [Example E86, 4-ethoxy-N-(5-methyl-1-(3-morpholinocyclobutyl)-1H-pyrazol-4-yl)-7H-pyrrolo[2,3-d] pyrimidin-2-amine]
≤ 100 | 31.6 | – | CCOc1nc(Nc2cnn(CCN3CCO[C@H](C(F)F)C3)c2C)nc2[nH]ccc12 [Example E100, (S)—N-(1-(2-(2-(difluoromethyl)morpholino)ethyl)-5-methyl-1H-pyrazol-4-yl)-4-ethoxy-7H-pyrrolo[2,3-d]pyrimidin-2-amine]
